The source of these data is patent publication US10022366B2, “Extending and maintaining micropore viability of microneedle treated skin with lipid biosynthesis inhibitors for sustained drug delivery” (University of Maryland, Baltimore, priority 2013, dated 2018).

Each structure is given as a SMILES string. Structures can show the parent of a compound that is named as a salt.

Usually log P stands for the decadic logarithm of the partition coefficient of the neutral form, usually between octanol and water. In general, pKa refers to the pH at which an ionisable group is half protonated. In general, AUC refers to the area under the concentration-time curve, a measure of exposure. By Cmax is commonly meant the peak of the concentration-time curve. What is called Tmax is the time from dosing to the highest level.

For series [1] the following is noted: cited from earlier work.
Series [2] can be described thus: Solubility of FLU in the deposition formulations. Type of series: physicochemical. Conditions: in the four deposition formulations (ethanol, acetone, PG-ethanol, PG-ethanol-water). As for the experimental part: (§1) In order to optimize FLU skin concentration and NTX flux, in certain embodiments, four different methods were chosen for FLU deposition. […] Ethanol (200 proof) was chosen for in vivo studies because it is a frequently used topical excipient and most of the 40 μl ethanol used was allowed to evaporate before application of the drug gel. […] The other two formulations tested contained either 70% or 25% PG. […] See Ghosh P. et al., 2013. Development of a codrug approach for sustained delivery across MN treated skin. […] See Milewski M., Stinchcomb A 2011. Vehicle Composition Influence on the MN-Enhanced Transdermal Flux of Naltrexone Hydrochloride. Pharmaceutical Research 28: 124-134. The formulations also contained large amounts of ethanol, a known permeation enhancer, and evaporation of the ethanol from these was not as efficient due to the presence of PG. Solubility of FLU was not an issue with any of the formulations. Therefore, in a preferred embodiment, 40 μl of 1.5% FLU in 200 proof ethanol was chosen as the vehicle for FLU deposition. Ethanol is a well-known chemical enhancer used in the topical/transdermal industry. It acts by replacing the water molecules in the lipid polar head groups as well as the protein regions of the SC, thus enhancing free volume and permeability of molecules across the skin. See Feingold K R 2009. The outer frontier: the importance of lipid metabolism in the skin. […]

For series [3] the following is noted: humans; cited from earlier work.
The nature of series [4]: Skin irritation by colorimetry (change in erythema, Δa*). The class given is in vivo, hairless guinea pigs (HGP). The conditions noted are these: immediately following treatment or following removal of the patches at 7 days; among treatment groups; p>0.05. As for the experimental part: Local skin irritation can be one of the major drawbacks of topical/transdermal delivery, so irritation studies were conducted to look at the effect of local FLU treatment of the skin in HGP. The studies were conducted using the same treatment groups as the recovery studies. Colorimeter (Chroma Meter CR-400, Konica, Minolta, Japan) readings were obtained, in triplicate, at each site before and immediately after the treatment. The data were used to record changes in the color of the skin from baseline based on 3 different color axes, the red-green axis (a*), the black-white axis (L*) and the yellow-blue axis (b*). […] The degree of redness of the skin or the change in erythema of the skin was measured by the change in the red green axis (Δa*) values. Skin irritation studies were conducted in triplicate.

Series [5] is described as follows: In vitro diffusion studies across MN treated skin (NTX flux, NTX and FLU skin concentration). The class given is in vitro ADME, Yucatan miniature pig. Conditions: p>0.05. The text has this:
NTX and FLU were quantified using high pressure liquid chromatography (HPLC). The HPLC system consisted of a Waters 717 plus auto-sampler, a Waters 600 quaternary pump, and a Waters 2487 dual wavelength absorbance detector with Waters Empower™ software. A Perkin Elmer Brownlee™ Spheri 5 VL C18 column (5μ, 220×4.6 mm) and a C18 guard column (15×3.2 mm) were used with the UV detector set at a wavelength of 280 nm for NTX and 305 nm for FLU. The mobile phase consisted of 65:35 (v/v) ACN: (0.1% TFA with 0.065% 1-octane sulfonic acid sodium salt, adjusted to pH 3.0 with TEA aqueous phase). Samples were run at a flow rate of 1.5 ml/min. The injection volume used was […] for all samples.
In vitro studies were performed to look at the flux across MN treated skin and the skin concentrations of NTX and FLU in the skin. Full-thickness Yucatan miniature pig skin was used for all in vitro experiments. All pig tissue harvesting experiments were done under IACUC approved protocols at the University of Kentucky. Fresh skin was cleaned to remove excess subcutaneous fat, dermatomed and stored at −20° C. Skin was thawed and cut into small square pieces on the day of the diffusion experiment. The thickness was measured for each individual piece of skin and the average thickness of all treatment groups was maintained between 1.4-1.8 mm. Skin was next treated with a 5 MN in-plane array, 10 times in one direction and 10 times in a mutually perpendicular direction to generate a total of 100 MN insertions within the active treatment area of 0.95 cm^2. Five treatment groups were used based on the 4 different vehicles used for FLU and a control for NTX only; all studies were done in triplicate. […] All samples were analyzed using HPLC. The steady state flux of NTX was calculated using the steady state portion of the cumulative amount permeated vs. time plot. The skin concentrations of both drugs were also determined at the end of the study by extracting the drug overnight into 10 mL of ACN, and injecting the extracted sample onto the HPLC column after appropriate dilutions. […]

Series [6] in a line: Pharmacokinetic studies of NTX after MN treatment with or without FLU. The conditions noted are these: for AUC / Cmax / Tmax: hairless, guinea pig, plasma.
A short description of series [7]: Reversibility/recovery of pores by transepidermal water loss (TEWL). Type of series: in vivo, hairless guinea pigs (HGP). Conditions: after removal of occlusion at 7 days; compared among the 5 treatment sites; p>0.05.
Source text: The reversibility/recovery of the pores following removal of occlusion was studied using transepidermal water loss (TEWL) in a HGP model. Five different sites were chosen on the dorsal region of an animal. […] All sites were marked and cleaned on the day of the treatment. […] The concentration and amount of NTX gel and FLU were consistent with the PK studies. A placebo gel was used for site 3 and site 4. The placebo gel was similar in composition to the NTX gel with 10% PG, 1% benzyl alcohol and 3% HEC as the gelling agent. […] All sites were occluded using a transdermal patch (148) secured in place with Bioclusive™ tape. […] All experiments were conducted at least in triplicate. Recovery of the skin, (i.e., regeneration of the barrier function of the SC) was studied using TEWL. These studies were carried out to look at the effect of the local concentration of FLU on the recovery/healing of the skin following removal of occlusion.
Series [8] in a line: Irritation in the MN-treated animal models (data not shown). The class given is in vivo. Conditions: FLU deposition vehicle on MN-treated animal models. As for the experimental part: as §1
For series [9] the following is noted: established positive control treatment in HGP, 0.5% solution; cited from earlier work.
The conditions of series [10]: daily/alternate day topical application; compared to 2-3 days without pore lifetime enhancement agent; cited from earlier work.
The conditions of series [11]: using MN, humans, no pore lifetime enhancer; cited from earlier work.

Regarding `CC(C)n1c(/C=C/C(O)CC(O)CC(=O)O)c(-c2ccc(F)cc2)c2ccccc21` (stereo not shown) [FLU, fluvastatin sodium], in series [1], the “log P” value is 4.6 and the pKa is recorded as 4.27. Besides, in [2], the solubility result is reported as “not an issue”. For the same compound, the oral bioavailability in [3] is given as 9-50%. Besides, the “change in erythema (Δa*)” value in series [4] is given as “no significant differences”. Also, in series [5] (irrespective of the method of FLU deposition, 1.5% FLU, 40 μl), the “concentration of FLU in the skin” value is reported as “no significant difference”. The “enhancement of drug delivery (window)” value in series [6] (NTX delivery across MN-treated skin with addition of FLU) is given as 7 days. Moreover, in [7], the “recovery of the skin (TEWL enhancement ratio over baseline)” value is “no significant differences”.

Consider `CC(C)=O` [Acetone, acetone], for which the irritation entry in series [8] was “caused irritation”.

Turning to `CCCCCCCCCCCCOS(=O)(=O)[O-].[Na+]` [sodium lauryl sulfate], the “Δa* value” in series [9] was 12.3.

For the compound `O=C(O)Cc1ccccc1Nc1c(Cl)cccc1Cl` [diclofenac, diclofenac sodium], the “period of drug delivery following MN treatment” value in series [10] is 7 days.

`O=C1CC[C@@]2(O)[C@H]3Cc4ccc(O)c5c4[C@@]2(CCN3CC2CC2)[C@H]1O5` [NTX, Naltrexone HCL]: in series [5] (NTX flux compared among the 5 treatment groups (4 FLU vehicles, NTX only control)), the “flux across MN treated skin” value is on record as “no significant difference”. Also, the “concentration of NTX in the skin” value in series [5] (irrespective of the method of FLU deposition) is “no significant difference”. Further, in [11], the “duration of delivery at therapeutic levels” value is 2 to 3 days. Besides, the plasma concentrations entry in [6] (NTX, FLU treatment group, throughout the range of the study (168 h)) is listed as “above 2 ng/mL”; in series [6] (NTX, vehicle control (ethanol), beyond 144 h) it was “below 2 ng/mL”. Further, the “lag time with MN enhanced delivery” value in series [6] (NTX, any of the three groups) is on record as “no lag time observed”. Moreover, in series [6] (NTX, patch system on MN treated skin), the “time after treatment at which drug was quantified in plasma” value was ≤ 15 min. In addition, in [6] (all study groups, HGP), the “time for which detectable levels of NTX were present in the plasma” value was determined as 72 h. Besides, in series [6] (ethanol treated group, at 7 days), the “NTX concentration in the plasma” value was < 2 ng/mL. The AUC was determined as 614 ± 213 ng·h/mL in series [6] (topical or ocular, 200 μL NTX gel, NTX in plasma, HGP, MN control: MN + NTX gel); 1410 ± 1040 ng·h/mL in series [6] (topical or ocular, NTX in plasma, HGP, Treatment group: MN + NTX gel + FLU in ethanol); 1700 ± 1670 ng·h/mL in [6] (topical or ocular, NTX in plasma, HGP, Vehicle control: MN + NTX gel + ethanol). Also, the Cmax in series [6] (topical or ocular, 200 μL NTX gel, NTX in plasma, HGP, MN control: MN + 200 μL NTX gel, n=3) turned out to be 39.4 ± 11.5 ng/mL; in series [6] (topical or ocular, NTX in plasma, HGP, Treatment group: MN + 300 μL NTX gel + 40 μL FLU in ethanol (200 proof), n=3), 38.1 ± 19.7 ng/mL; in [6] (topical or ocular, NTX in plasma, HGP, Vehicle control: MN + 300 μL NTX gel + 40 μL ethanol (200 proof), n=4), 39.3 ± 19.2 ng/mL. Also, the Tmax is 2.8 ± 2 h in series [6] (topical or ocular, 200 μL NTX gel, Tmax, NTX in plasma, HGP, MN control: MN + NTX gel); 2.7 ± 3.8 h in [6] (topical or ocular, Tmax, NTX in plasma, HGP, Treatment group: MN + NTX gel + FLU in ethanol); 1.4 ± 1.7 h in [6] (topical or ocular, Tmax, NTX in plasma, HGP, Vehicle control: MN + NTX gel + ethanol); 0.25 to 4 h in series [6] (topical, Tmax or time to maximum plasma concentration, NTX, all studies). In addition, the NTX levels result in series [6] (vehicle control group, until 144 hours) is “above 2 ng/ml”.
